Data as given in patent US10280170B2, “Substituted 4,5,6,7-tetrahydro-pyrazolo[1,5-a]pyrazine derivatives and 5,6,7,8-tetrahydro-4H-pyrazolo[1,5-a][1,4]diazepine derivatives as Ros1 inhibitors” (Janssen Pharmaceutica NV, priority 2014, dated 2019).
Read-outs that look alike come from different tables or passages of the source.

Legend:
[1] = target: T1, Ros1 enzyme (Homo sapiens, UniProt P08922); assay: Ros1 enzymatic assay; type: biochemical; conditions: Ros1 enzymatic assay; read-out: ROS1 pIC50 (converted)
T1 construct: 0.5 μg/ml Ros1 enzyme
T1 sequence (P08922 28-2347): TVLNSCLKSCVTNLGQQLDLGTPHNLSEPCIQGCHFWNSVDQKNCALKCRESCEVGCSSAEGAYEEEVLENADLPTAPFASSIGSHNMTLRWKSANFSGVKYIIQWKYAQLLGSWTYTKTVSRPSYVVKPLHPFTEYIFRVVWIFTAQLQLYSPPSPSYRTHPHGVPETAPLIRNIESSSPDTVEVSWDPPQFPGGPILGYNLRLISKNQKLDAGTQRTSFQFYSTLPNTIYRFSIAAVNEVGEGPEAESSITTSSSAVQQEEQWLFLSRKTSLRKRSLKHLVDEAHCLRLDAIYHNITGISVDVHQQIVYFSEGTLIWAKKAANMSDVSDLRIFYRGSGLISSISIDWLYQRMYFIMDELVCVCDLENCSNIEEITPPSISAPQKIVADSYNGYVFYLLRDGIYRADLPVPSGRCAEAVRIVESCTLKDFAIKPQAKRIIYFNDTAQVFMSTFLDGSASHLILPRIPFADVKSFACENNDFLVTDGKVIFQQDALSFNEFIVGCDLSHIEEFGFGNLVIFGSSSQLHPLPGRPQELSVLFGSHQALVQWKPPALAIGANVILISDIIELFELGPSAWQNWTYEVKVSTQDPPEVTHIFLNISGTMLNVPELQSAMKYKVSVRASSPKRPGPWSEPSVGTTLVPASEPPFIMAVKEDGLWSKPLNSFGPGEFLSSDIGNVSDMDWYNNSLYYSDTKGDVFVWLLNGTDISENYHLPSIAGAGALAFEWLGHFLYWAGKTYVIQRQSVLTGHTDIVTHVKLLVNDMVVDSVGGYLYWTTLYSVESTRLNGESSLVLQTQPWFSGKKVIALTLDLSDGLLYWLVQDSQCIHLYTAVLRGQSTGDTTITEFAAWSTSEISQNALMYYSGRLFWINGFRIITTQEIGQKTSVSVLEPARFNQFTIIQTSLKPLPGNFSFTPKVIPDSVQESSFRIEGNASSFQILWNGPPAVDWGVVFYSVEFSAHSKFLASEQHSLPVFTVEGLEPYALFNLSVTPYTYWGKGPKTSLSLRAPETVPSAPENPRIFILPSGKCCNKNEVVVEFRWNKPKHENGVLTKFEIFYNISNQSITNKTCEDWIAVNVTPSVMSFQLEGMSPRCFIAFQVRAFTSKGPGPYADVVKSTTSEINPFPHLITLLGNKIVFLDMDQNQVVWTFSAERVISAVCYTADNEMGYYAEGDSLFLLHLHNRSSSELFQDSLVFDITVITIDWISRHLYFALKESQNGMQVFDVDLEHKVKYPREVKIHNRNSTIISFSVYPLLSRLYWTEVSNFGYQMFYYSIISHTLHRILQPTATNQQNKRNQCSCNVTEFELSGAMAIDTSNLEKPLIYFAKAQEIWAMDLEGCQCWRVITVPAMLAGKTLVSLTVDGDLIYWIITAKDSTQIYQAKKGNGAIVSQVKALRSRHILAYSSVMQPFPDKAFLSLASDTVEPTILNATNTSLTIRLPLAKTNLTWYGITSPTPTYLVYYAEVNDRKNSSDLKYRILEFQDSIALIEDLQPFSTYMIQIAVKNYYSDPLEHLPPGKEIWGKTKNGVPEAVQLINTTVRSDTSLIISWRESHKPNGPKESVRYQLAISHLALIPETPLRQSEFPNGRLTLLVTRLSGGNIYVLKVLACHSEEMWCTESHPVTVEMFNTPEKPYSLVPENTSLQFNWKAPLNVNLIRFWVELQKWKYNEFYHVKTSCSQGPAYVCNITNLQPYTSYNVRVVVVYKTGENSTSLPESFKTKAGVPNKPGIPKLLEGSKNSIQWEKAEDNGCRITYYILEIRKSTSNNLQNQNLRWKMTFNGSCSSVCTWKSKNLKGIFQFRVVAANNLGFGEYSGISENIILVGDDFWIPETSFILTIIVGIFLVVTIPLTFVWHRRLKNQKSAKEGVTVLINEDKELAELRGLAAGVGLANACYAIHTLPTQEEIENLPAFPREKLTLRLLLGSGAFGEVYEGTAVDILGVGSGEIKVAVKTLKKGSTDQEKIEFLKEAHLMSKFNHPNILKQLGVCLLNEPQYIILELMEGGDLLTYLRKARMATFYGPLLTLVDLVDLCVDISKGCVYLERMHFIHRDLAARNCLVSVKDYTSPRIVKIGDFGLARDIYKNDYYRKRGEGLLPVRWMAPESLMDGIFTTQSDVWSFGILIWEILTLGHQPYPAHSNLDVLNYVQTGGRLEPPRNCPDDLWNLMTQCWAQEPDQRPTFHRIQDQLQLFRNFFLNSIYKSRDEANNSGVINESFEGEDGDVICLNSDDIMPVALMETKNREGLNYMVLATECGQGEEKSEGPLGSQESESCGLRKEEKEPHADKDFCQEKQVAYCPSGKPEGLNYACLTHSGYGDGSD
In short: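 Radiometric proximity read-out: 33P incorporated into IRS-Tide captured on streptavidin imaging beads and imaged on LEADseeker. Phosphorylation ran 120 min at RT with 20 μM ATP (substrate-mix level) in Tris pH7.5/MgCl2/EGTA/Tween buffer; EDTA stop.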

[2] = target: T2, Ba/F3 cells containing Ros1 wild-type protein (Homo sapiens, UniProt P08922, cells depend on it, form not given); assay: Ba/F3-Ros1 cell proliferation assay, wild-type Ros1; type: cell-based, murine; conditions: without IL-3
T2 construct: The background only speaks of 'a number of different unrelated proteins' and names SLC34A2-ROS1 for HCC78 cells
T2 sequence (P08922 whole entry, stated change not applied): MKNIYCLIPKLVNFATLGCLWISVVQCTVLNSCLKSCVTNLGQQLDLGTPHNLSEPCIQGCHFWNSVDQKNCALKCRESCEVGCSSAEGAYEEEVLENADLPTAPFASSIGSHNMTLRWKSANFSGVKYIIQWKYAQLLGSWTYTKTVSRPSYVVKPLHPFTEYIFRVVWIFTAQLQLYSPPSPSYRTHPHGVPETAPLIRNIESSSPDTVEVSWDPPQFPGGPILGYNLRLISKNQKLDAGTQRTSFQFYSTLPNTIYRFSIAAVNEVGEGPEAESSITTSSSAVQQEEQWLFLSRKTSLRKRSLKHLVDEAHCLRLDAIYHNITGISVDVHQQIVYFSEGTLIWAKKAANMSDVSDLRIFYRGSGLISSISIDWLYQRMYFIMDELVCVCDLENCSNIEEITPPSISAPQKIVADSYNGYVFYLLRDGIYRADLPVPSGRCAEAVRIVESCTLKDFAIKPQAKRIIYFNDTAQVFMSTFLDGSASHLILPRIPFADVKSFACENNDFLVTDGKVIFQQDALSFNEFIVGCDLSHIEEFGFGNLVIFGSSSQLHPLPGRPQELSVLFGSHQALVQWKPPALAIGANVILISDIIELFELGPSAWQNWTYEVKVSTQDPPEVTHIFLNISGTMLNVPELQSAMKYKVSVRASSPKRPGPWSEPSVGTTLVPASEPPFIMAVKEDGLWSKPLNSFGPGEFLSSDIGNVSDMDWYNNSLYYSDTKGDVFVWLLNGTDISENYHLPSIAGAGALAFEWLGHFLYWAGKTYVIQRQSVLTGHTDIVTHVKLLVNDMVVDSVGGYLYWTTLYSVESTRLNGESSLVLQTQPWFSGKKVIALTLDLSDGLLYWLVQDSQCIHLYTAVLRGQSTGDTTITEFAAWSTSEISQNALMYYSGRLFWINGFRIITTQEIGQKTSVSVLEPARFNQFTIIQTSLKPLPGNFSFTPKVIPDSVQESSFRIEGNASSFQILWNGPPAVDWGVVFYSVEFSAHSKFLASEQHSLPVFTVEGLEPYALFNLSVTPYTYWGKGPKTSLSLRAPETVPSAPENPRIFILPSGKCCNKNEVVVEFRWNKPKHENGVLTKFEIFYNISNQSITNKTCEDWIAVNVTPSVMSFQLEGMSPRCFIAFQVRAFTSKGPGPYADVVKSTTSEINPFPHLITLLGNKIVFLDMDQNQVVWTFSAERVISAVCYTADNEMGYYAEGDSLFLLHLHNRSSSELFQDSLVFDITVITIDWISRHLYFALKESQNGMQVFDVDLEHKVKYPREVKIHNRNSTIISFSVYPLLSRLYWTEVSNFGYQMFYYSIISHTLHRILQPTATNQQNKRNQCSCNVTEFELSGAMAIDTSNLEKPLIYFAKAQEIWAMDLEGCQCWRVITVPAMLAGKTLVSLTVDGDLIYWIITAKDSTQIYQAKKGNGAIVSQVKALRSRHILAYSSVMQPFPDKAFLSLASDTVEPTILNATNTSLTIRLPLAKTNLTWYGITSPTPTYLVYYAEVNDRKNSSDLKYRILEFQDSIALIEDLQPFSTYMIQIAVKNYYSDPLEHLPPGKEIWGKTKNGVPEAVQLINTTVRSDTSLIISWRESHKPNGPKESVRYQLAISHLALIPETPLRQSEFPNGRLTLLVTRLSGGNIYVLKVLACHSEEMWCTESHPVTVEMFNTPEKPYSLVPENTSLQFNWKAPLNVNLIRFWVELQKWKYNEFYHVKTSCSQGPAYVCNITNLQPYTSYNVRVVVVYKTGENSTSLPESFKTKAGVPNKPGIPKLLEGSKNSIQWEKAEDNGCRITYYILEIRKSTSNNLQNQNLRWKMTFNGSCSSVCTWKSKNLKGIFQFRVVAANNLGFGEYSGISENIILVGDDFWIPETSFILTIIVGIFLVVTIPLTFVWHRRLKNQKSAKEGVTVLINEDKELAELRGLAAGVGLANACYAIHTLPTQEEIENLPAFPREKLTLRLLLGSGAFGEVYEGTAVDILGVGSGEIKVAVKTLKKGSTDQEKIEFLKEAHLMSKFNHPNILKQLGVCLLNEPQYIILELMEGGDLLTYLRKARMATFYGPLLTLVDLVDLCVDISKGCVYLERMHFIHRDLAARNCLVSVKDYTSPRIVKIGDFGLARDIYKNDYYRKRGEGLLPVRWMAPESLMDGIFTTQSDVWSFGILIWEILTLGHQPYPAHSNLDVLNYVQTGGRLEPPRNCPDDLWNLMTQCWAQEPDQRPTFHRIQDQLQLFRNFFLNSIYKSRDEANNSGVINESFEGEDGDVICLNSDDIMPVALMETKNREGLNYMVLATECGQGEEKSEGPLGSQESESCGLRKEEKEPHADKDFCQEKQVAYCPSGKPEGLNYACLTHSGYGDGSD
In short: (§1)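 Alamar Blue read-out (resazurin, ex. 540 nm, em. 590 nm, 4 h at 37 °C) after 24 h compound exposure of 20000 Ba/F3-Ros1 cells per well. Cells carry WT, gatekeeper L2026M or crizotinib-resistant G2032R Ros1; medium RPMI-1640, 10% FBS, 2 mM L-Glutamine.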

[3] = test system: Ba/F3 cells containing Ros1 wild-type protein + IL-3; assay: Ba/F3-Ros1 cell proliferation counter-screen, wild-type protein in the presence of 10 ng/ml murine IL-3; type: cell-based; conditions: Mus musculus, BaF3, 24 h, read-out: BaF3-ROS1 + IL3 pIC50 (converted)
In short: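 IL-3 rescue counter-screen: WT Ros1 Ba/F3, 10 ng/ml mIL-3, 24 h compound exposure, 37 °C/5% CO2; Alamar Blue added 4 h, RFU ex540/em590.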

[4] = test system: HCC78 non-small cell lung cancer cells; assay: HCC78 cell proliferation assay; type: cell-based; conditions: Homo sapiens, HCC78, 96 h, read-out: HCC-78 PROL pEC50 (converted)
In short: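 HCC78 NSCLC cells (~1000/well) in RPMI-1640 with 10% FBS were treated 24 h after seeding and exposed to compound for 4 days at 37 °C. Viability was read by MTT, with absorbance at 538 nm after DMSO/glycine solubilization.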

[5] = test system: Ros pY2274 in HCC78 cells; assay: pROS1 immunofluorescence assay in HCC78 cells; type: cell-based; conditions: Homo sapiens, read-out: HCC78-pRos1 pIC50 (converted)
Method: pROS1 Immunofluorescence Assay in HCC78 Cells
Approximately 20000 HCC78 non-small cell lung cancer cells in 180 μl of cell culture medium (RPMI-1640, 10% FBS, 2 mM L-Glutamine, 10 mM Hepes, 1 mM sodium pyruvate, 4.5 g/L glucose, 1.5 g/L sodium bicarbonate, 25 μg/ml Gentamycin) were seeded in each well of a 96-well polystyrene, poly-D-lysine coated plate and incubated at 37° C. and 5% CO2. After 24 hours, compounds were diluted in cell culture medium from which 20 μl was added to the wells containing cells and incubated for 4 hours at 37° C. and 5% CO2. The medium was removed and the cells were fixed by adding 100 μl of 5% formaldehyde in TBS (tris-buffered saline) (50 mM Tris.HCl, pH 7.4, 150 mM NaCl) and incubating for 15 minutes at room temperature. The formaldehyde was removed and replaced with methanol for 10 minutes at room temperature, after which the cells were washed 3 times with TBS containing 1% Triton X-100 and incubated in Odyssee (Li-Cor) blocking buffer for 1 hour at room temperature. The cells were then incubated with the primary rabbit antibody directed against Ros pY2274 (cst-3078) diluted 1/200 in blocking buffer for 24 hours at room temperature. The cells were washed three times with TBS containing 0.1% Triton X-100 and incubated with a secondary anti-rabbit antibody conjugated to the fluorescent dye Alexafluor 680 in blocking buffer for 1 hour at room temperature. The cells were washed three times with TBS containing 0.1% Triton X-100 and left to dry before measuring RFUs (Relative Fluorescence Units) at 700 nm using a fluorescence imager.
The same experiment was performed using total Ros1 antibody (sc-6347) diluted 1/1000 instead of Ros1 pY2274 antibody and an anti-goat antibody conjugated to IRDye800cw as a secondary antibody. RFUs were measured at […]. The signals from total Ros1 detection were used to normalize the Ros1 pY2274 values.

[6] = target: Ba/F3 cells containing Ros1 with a mutation at the gatekeeper residue (L2026M) (Homo sapiens, UniProt P08922, L2026M, cells depend on it, form not given); assay: Ba/F3-Ros1 cell proliferation assay, L2026M gatekeeper mutant; type: cell-based, murine; conditions: without IL-3
Chain of Ba/F3 cells containing Ros1 with a mutation at the gatekeeper residue (L2026M) (P08922 whole entry L2026M, form open): as the sequence (P08922 whole entry, stated change not applied) above, with L2026M counted along it
In short: as §1

[7] = counter-screen, wild-type, 10 ng/ml murine IL-3
[8] = HCC78 cells, 4 hours, Ros pY2274 normalized to total Ros1

IC50 [1] [nM]	BaF3-ROS1-IL3 pIC50 [2]	EC50 ([4]; HCC78 cells, 4 days, MTT) [nM]	melting point [°C]	SMILES	CC50 [3, 7] [nM]	IC50 [5, 8] [nM]	CC50 [3] [nM]	EC50 [4] [nM]	IC50 ([5]; HCC78, 4 h) [nM]	Ba/F3 Ros1 L2026M (-IL-3) pIC50 [6]
31.6	7.1	398	155	CC(C)c1ccc(COc2ccc(-c3c(-c4ccncc4)nn4c3C(=O)N(C)CC4)cc2)cc1 [Compound 48]	> 10000	63.1	–	–	–	–
126	7.1	126	–	CC(C)c1ccc(COc2ccc(-c3c(-c4ccncn4)nn4c3C(=O)N(CC3(C)COC3)CC4)cc2)cc1 [Compound 163]	> 10000	316	–	–	–	7.1
398	6.1	1580	194	CC(C)c1ccc(COc2ccc(-c3c(-c4ccncc4)nn4c3CNCC4)cc2)cc1 [Compound 173]	> 10000	316	–	–	–	–
158	6.9	79.4	150	CC(C)c1ccc(COc2ccc(-c3c(-c4ccncc4)nn4c3CN(CCO)CC4)cc2)cc1 [Compound 176]	> 10000	–	–	–	–	7.1
200	6.9	398	95	CC(C)c1ccc(COc2ccc(-c3c(-c4ccncc4)nn4c3CN(CC(=O)N(C)C)CC4)cc2)cc1 [Compound 177]	> 10000	–	–	–	–	6.6
794	5.7	2000	–	CC(C)c1ccc(COc2ccc(-c3c(-c4ccncc4)nn4c3CN(C(=O)CN(C)C)CC4)cc2)cc1 [Compound 181]	5010	1260	–	–	–	–
158	6.9	501	148	CC(O)CN1CCn2nc(-c3ccncc3)c(-c3ccc(OCc4ccc(C(C)C)cc4)cc3)c2C1 (centres unmarked) [Compound 191]	> 10000	–	–	–	–	7.0
126	7.0	251	140	CC(C)c1ccc(COC2CCN(c3c(-c4ccncc4)nn4c3C(=O)N(C)CC4)CC2)cc1 [Compound 215]	> 10000	–	–	–	–	7.2

Continued, compound first:

SMILES	IC50 [1] [nM]	BaF3-ROS1-IL3 pIC50 [2]	EC50 ([4]; HCC78 cells, 4 days, MTT) [nM]	melting point [°C]	CC50 [3, 7] [nM]	IC50 [5, 8] [nM]	CC50 [3] [nM]	EC50 [4] [nM]	IC50 ([5]; HCC78, 4 h) [nM]	Ba/F3 Ros1 L2026M (-IL-3) pIC50 [6]
CC(C)c1ncc(COc2ccc(-c3c(-c4ccncc4)nn4c3C(=O)NCC4)cc2)cn1 [Compound 103]	1260	6.0	–	235	–	–	> 10000	2000	3980	–
COc1cc(-c2c(-c3ccnc(N)c3)nn3c2C(=O)N(C)CC3)ccc1OCc1ccc(C(C)C)cc1 [Compound 150]	7.94	7.6	–	–	–	–	> 10000	39.8	10	7.4
CC(C)c1ccc(COc2ccc(-c3c(-c4ccncc4F)nn4c3C(=O)NCC4)cc2)cc1 [Compound 151]	31.6	7.4	–	–	–	–	> 10000	63.1	20	7.1
CC(C)c1ccc(COc2ccc(-c3c(-c4ccnc5[nH]ccc45)nn4c3C(=O)N(CCO)CC4)cc2)cc1 [Compound 156]	63.1	8.0	20	219	> 10000	–	–	–	–	7.0
CC(C)c1ccc(COc2ccc(-c3c(-c4ccncn4)nn4c3C(=O)N(CC(O)CO)CC4)cc2)cc1 (centres unmarked) [Compound 161]	50.1	7.1	316	209	> 10000	–	–	–	–	6.7
O=C1c2c(-c3ccc(OCc4ccc(C5CC5)cc4)cc3)c(-c3ccncn3)nn2CCN1CCO [Compound 167]	126	7.2	–	170	–	–	> 10000	501	–	6.2
CC(C)c1ccc(COc2ccc(-c3c(-c4ccncc4)nn4c3CN(CC(=O)NCCO)CC4)cc2)cc1 [Compound 175]	100	6.9	–	189	–	–	5010	398	–	6.8
CC(C)c1ccc(COc2ccc(-c3c(-c4ccncc4)nn4c3C(=O)NC(CO)C4)cc2)cc1 (centres unmarked) [Compound 193]	79.4	7.3	–	254	–	–	> 10000	200	–	6.3
CNCC1Cn2nc(-c3ccncc3)c(-c3ccc(OCc4ccc(C(C)C)cc4)cc3)c2C(=O)N1 (centres unmarked) [Compound 194]	79.4	6.6	–	230	–	–	6310	501	–	6.2
CC(C)c1ccc(COc2ccc(-c3c(-c4ccncc4)nn4c3C(=O)NC(CN(C)CCO)C4)cc2)cc1 (centres unmarked) [Compound 195]	126	6.7	794	193	> 10000	–	–	–	–	7.0
CC(C)c1ccc(C2CCc3cc(-c4c(-c5ccncc5)nn5c4C(=O)NCC5)ccc3O2)cc1 (centres unmarked) [Compound 199]	200	7.1	–	262	–	–	> 10000	1260	–	7.5
CC(C)c1ccc(C2COc3cc(-c4c(-c5ccncc5)nn5c4C(=O)NCC5)ccc3O2)cc1 (centres unmarked) [Compound 201]	25.1	7.8	39.8	290	> 10000	–	–	–	–	7.4
O=C1c2c(-c3ccc(OCc4ccc(OC(F)(F)F)cc4)cc3F)c(-c3ccncc3)nn2CCN1CCO [Compound 206]	39.8	7.5	–	140	–	–	> 10000	100	–	~7.4
COc1cc(C(C)C)ccc1COc1ccc(-c2c(-c3ccncc3)nn3c2C(=O)NCC3)cc1 [Compound 216]	63.1	7.3	–	200	–	–	> 10000	631	–	6.9
CC(C)c1ccc(COc2ccc(-c3c(-c4ccnc(CO)c4)nn4c3C(=O)NCC4)cc2)cc1 [Compound 233]	794	6.5	–	232	–	–	> 10000	2510	–	5.9
